Six compounds from patent US20220251116A1, “ALKYLBORONIC ACIDS AS ARGINASE INHIBITORS” (Guangdong Newopp Biopharmaceuticals Co., Ltd., priority 2019, published 2022) can be followed below.

Each structure is given as a SMILES string. Where a name gives a salt, the structure may show the parent alone.

Experiment [1] has as its target recombinant human arginase 1 (Homo sapiens, UniProt P05089). As to the kind of experiment: Arginase inhibitory activity test, enzymatic assay based on urea measurement (Arg 1).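 Further: enzyme incubated with L-arginine substrate and compound at 37 °C for 120 min, urea product detected colorimetrically by absorbance at 450 nm, background from wells lacking enzyme.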
Method: (§1) An enzymatic assay with recombinant human arginases 1 or 2 was used to measure inhibitory activity of the compounds. The assay is based on urea measurement, which is a product of L-arginine enzymatic degradation.
(§2) Briefly, arginase and the substrate solution containing L-arginine were incubated in the absence or presence of varying concentrations of compounds at 37° C. for 120 min. For the background correction, only the substrate solution was added without arginase. The urea detection reagent from QuantiChrome™ Urea assay kit (BioAssay Systems, CA) was added to develop the color product. After 60 min at room temperature, the absorbance was measured at 450 nm with CLARIOstar (BMG LABTECH). Urea was used as the standard.
For experiment [2], the target named is T1, recombinant human arginase 2 (Homo sapiens, UniProt P78540).
T1 sequence (P78540 23-354): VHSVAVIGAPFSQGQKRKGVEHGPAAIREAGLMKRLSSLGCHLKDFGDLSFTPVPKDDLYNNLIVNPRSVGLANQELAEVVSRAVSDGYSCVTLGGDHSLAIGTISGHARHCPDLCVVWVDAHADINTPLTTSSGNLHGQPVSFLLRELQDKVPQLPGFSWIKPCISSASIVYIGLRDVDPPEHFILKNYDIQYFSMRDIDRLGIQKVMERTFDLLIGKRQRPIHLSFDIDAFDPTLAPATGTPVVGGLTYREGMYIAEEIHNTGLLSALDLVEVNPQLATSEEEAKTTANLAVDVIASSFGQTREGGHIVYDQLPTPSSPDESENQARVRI
As to the kind of experiment: Arginase inhibitory activity test, enzymatic assay based on urea measurement (Arg 2). Format: biochemical. The note with it: 37° C. for 120 min, urea detection, read-out: Arg 2 enzymatic potency. The source says: Urea was used as the standard.

The target of experiment [3] is T2, recombinant human arginase 1 (Homo sapiens, UniProt P05089).
T2 sequence (P05089 1-322): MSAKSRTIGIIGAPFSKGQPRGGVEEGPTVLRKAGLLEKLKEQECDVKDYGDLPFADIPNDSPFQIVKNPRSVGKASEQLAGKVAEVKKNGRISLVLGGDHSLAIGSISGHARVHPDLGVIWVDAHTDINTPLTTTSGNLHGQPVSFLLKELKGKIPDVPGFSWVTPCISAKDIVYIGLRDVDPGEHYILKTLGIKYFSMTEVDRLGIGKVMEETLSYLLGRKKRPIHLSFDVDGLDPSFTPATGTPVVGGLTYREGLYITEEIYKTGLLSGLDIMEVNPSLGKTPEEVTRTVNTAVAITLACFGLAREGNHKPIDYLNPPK
As to the kind of experiment: Arginase inhibitory activity test, enzymatic assay based on urea measurement (Arg 1). This is another data set of the same source.
Method: as §1, §2

For the compound `CN(C[C@H](N)C(F)F)S(=O)(=O)N1C[C@H](CCCB(O)O)[C@](N)(C(=O)O)C1` (racemic), the IC50 in experiment [1] lay within 100 to 1000 nM. In the case of `N[C@@H](CNS(=O)(=O)N1C[C@H](CCCB(O)O)[C@](N)(C(=O)O)C1)C(F)F` (racemic), in experiment [1], the IC50 lay in the range of 100 to 1000 nM. With `CC(C)(CN)NS(=O)(=O)N1C[C@H](CCCB(O)O)[C@](N)(C(=O)O)C1` (racemic) [Example 26, (rac)-trans-3-amino-1-(N-(1-amino-2-methylpropan-2-yl)sulfamoyl)-4-(3-boronopropyl)pyrrolidine-3-carboxylic acid, (1:2) 2,2,2-trifluoroacetic acid salt], the IC50 in experiment [2] and in experiment [3] was < 100 nM each time. Take `N[C@@]1(C(=O)O)CN(S(=O)(=O)N2CCNCC2)C[C@@H]1CCCB(O)O` (racemic) [Example 30, (rac)-trans-3-amino-4-(3-boronopropyl)-1-(piperazin-1-ylsulfonyl)pyrrolidine-3-carboxylic acid, 2,2,2-trifluoroacetic acid salt (1:2)]: the values for the IC50 in experiment [2] and in experiment [3] were 100 to 1000 nM and < 100 nM, respectively. On to `NCC1(NS(=O)(=O)N2C[C@H](CCCB(O)O)[C@](N)(C(=O)O)C2)COC1` (racemic) [Example 31], for which the figures for the IC50 in experiment [2] and in experiment [3] were 100 to 1000 nM and < 100 nM, respectively. For `N=C(N)N1C[C@H](CCCB(O)O)[C@](N)(C(=O)O)C1` (racemic) [Example 37, rac-(trans)-3-amino-4-(3-boronopropyl)-1-carbamimidoylpyrrolidine-3-carboxylic acid, 2,2,2-trifluoroacetic acid salt (1:2)], the IC50 in experiment [2] and in experiment [3] was 100 to 1000 nM each time.
